One series deals with Swiss Albino Mice. Put plainly: Safety study with Monolaurin, daily intravenous administration for 7 days (Example XII). The settings on record: Monolaurin group versus EDTA group. How it is done:
Compositions of Example IX, X and M were studied along with 5% Dextrose Injection as control.
The objective of this study was to access the safety of Monolaurin as such and in comparison with EDTA when administered into mice by an intravenous route.
Forty healthy Swiss albino mice weighing on an average 20-22 g were used in this study.
Toxicity was determined after administration of study materials.
Data was recorded as Mean +SD and median values for histopathological data.
Student's paired t-test was used to compare basal and final values of the parametric data within the same group and Student's unpaired t-test was used to compare values between two different groups. A ‘p’ value of <0.05 was considered as significant.
All experimental animals were observed daily for seven days for following parameters:
Each animal was weighed before the administration of study material and daily during the treatment period.

For series [1], the system named is broad spectrum microbial growth. The settings on record: Edetate at concentrations of 0.0025% and below; cited from earlier work.
The test system of series [2] is Candida albicans ATCC 10231, Pseudomonas aeruginosa ATCC 9027, Escherichia coli ATCC 8739 and Staphylococcus aureus ATCC 6538. Briefly: Preservative efficacy, overall result on the four standard U.S.P. organisms. It is filed as cell-based. The settings on record: Monolaurin at 0.01% w/v in the emulsion, organisms tested. The method, then: The said aliquots were incubated at a temperature of 20-25° C. for fungal culture and 30 to 35° C. for bacterial culture as recommended under “Antimicrobial effectiveness testing” in United States Pharmacopeia, Chapter 51 (U.S.P. <51>).
(for fungal cultures) and 32° C.±2° C. (for bacterial cultures). The viable counts of the test organisms were determined after 24 hours and 48 hours.

The next series concerns rats. The settings on record: administered orally; cited from earlier work.
For series [3] the following is noted: cited from earlier work.

The source of these data is patent US20080262084A1, “Stable Emulsion Compositions for Intravenous Administration Having Preservatie Efficacy” (priority 2004, published 2008).

SMILES strings stand for the structures.

On to `O=C([O-])CN(CCN(CC(=O)[O-])CC(=O)O)CC(=O)O.[Na+].[Na+]` [EDTA, Disodium edetate, reference compound], for which the Histopathological data result in the series with Swiss Albino Mice is recorded as “compare well”. Moreover, in series [1], the “preventing a no more than 10 fold increase in broad spectrum microbial growth” value is recorded as “ineffective”.
As for `CCCCCCCCCCCC(=O)OCC(O)CO` (stereo not shown) [Monolaurin], the “effectiveness as preservative (preventing a growth of not more than 10 fold)” value in series [2] is “effective as a preservative”. In the series with Swiss Albino Mice, the Histopathological data result is recorded as “compare well”. For the same compound, the LD50 result in the series with rats is reported as “about 53,000 mg/kg body weight”. Further, in series [3] (aqueous media), the “solubility in aqueous media” value is “insoluble”. The “solubility in fat solvents” value in series [3] (chloroform, benzene, ethanol, or acetone) was “highly soluble”.
